The source of these data is ChEMBL document CHEMBL1150612, “Naturally occurring cembranes from an Australian sarcophyton species” (J Nat Prod, 2002).

By IC50 is commonly meant the concentration at which inhibition is half-maximal. Read a low IC50 as greater potency.

SMILES strings stand for the structures. The source made the active and inactive calls. The rule behind the calls is not given here.

One assay has as its target T1, Adenosine receptor A1 (Rattus norvegicus, UniProt P25099).
T1 sequence (P25099 whole entry): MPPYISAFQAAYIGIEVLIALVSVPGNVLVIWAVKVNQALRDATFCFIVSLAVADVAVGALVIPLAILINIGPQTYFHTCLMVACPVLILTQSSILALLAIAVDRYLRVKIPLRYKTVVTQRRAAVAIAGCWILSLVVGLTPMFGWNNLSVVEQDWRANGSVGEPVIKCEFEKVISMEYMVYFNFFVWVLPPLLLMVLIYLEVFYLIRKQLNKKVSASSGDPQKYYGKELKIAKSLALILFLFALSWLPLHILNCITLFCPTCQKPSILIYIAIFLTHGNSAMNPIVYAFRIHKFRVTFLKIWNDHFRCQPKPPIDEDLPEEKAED
Briefly: Displacement of [3H]DPCPX from rat brain adenosine A1 receptor. (In general: In a radioligand displacement assay an active substance lowers the binding of a labelled ligand.)

For assay [1], the target named is T2, Adenosine receptor A1 (Rattus norvegicus) (UniProt P25099).
T2 sequence (whole entry): T1 sequence (P25099 whole entry)
Briefly: Displacement of [3H]DPCPX from rat brain adenosine A1 receptor up to […].

Turning to `CC(C)[C@H]1/C=C/[C@](C)(O)C/C=C/[C@@](C)(O)CC[C@@H]2O[C@@]2(C)CC1`, the IC50 on Adenosine receptor A1 stood at 300 µM.
Consider `C=C1CC[C@@H]2O[C@@]2(C)CC[C@@H](C(C)C)/C=C/[C@](C)(O)CC[C@@H]1O`, for which the result in assay [1] was inactive.
On to `C=C1CC[C@@H]2O[C@@]2(C)CC[C@@H](C(C)C)/C=C/[C@](C)(O)CC[C@H]1O`, for which the outcome in assay [1] was inactive.
The compound `CC(C)[C@H]1/C=C/[C@](C)(O)C/C=C/[C@](C)(O)CC[C@@H]2O[C@@]2(C)CC1` gave an IC50 at Adenosine receptor A1 of 300 µM.
